The values below come from patent US10111863B2 (CYDEX PHARMACEUTICALS, INC., priority 2009, dated 2018).

Each structure is given as a SMILES string. Structures can show the parent of a compound that is named as a salt. Where two headings read alike, the source gives them in different places.

As a reminder, the solubility is how much of the substance goes into solution per volume.

The conditions of data set [1]: cited from earlier work.
Data set [2] can be described thus: Phase solubility of prasugrel in aqueous SBE6.5-β-CD at pH 7.4. Particulars: for solubility: aqueous solution, pH 7.4, aqueous with cosolvent or surfactant or cyclodextrin, thermodynamic from solid, Prasugrel Solubility. It counts as physicochemical. An excerpt: The results of the phase solubility study at pH 7.4 are also depicted graphically in FIG. 2.
Data set [3] can be described thus: Phase solubility of prasugrel in aqueous SBE6.5-β-CD or HP4.3-β-CD at pH 4. It counts as physicochemical. Particulars: for solubility: thermodynamic from solid. The text has this:
The results of the phase solubility study at pH 4 are also depicted graphically in FIG. 3. […] Note that the data obtained for the 10% w/v cyclodextrin derivatives was not included in the best-fit line that appears in FIG. 3.

Data set [4] can be described thus: Stability of prasugrel in 30% w/v SBE6.5-β-CD at pH 3, 4 and 6 (HPLC). The data set is classed as physicochemical. Particulars: for decrease in prasugrel concentration: 30% w/v SBE6.5-β-CD. The protocol:
The solutions were sampled at 0, 2, 7 and 53 hours. […] The data obtained from the stability study is provided graphically in FIG. 5.

Data set [5] can be described thus: Stability of prasugrel in 30% w/v SBE6.5-β-CD or HP4.3-β-CD at pH 4 (HPLC). The data set is classed as physicochemical.
A further data set relates to platelet aggregation. Particulars: after treatment is stopped; cited from earlier work.
The next data set concerns platelet. Particulars: healthy subjects; cited from earlier work.

Consider `CC(=O)Oc1cc2c(s1)CCN(C(C(=O)C1CC1)c1ccccc1F)C2` (racemic) [Prasugrel hydrochloride], for which the pKa value in data set [1] is on record as 5.1. Also, the solubility entry in data set [1] (pH 1-4) is on record as “soluble to slightly soluble”; in data set [1] (pH 5) it was “very slightly soluble”; in data set [1] (pH 6-7), “practically insoluble”.

Take `CC(=O)Oc1cc2c(s1)CCN(C(C(=O)C1CC1)c1ccccc1F)C2` (racemic) [Prasugrel, 5-[(1RS)-2-cyclopropyl-1-(2-fluorophenyl)-2-oxoethyl]-4,5,6,7-tetrahydrothieno[3,2-c]pyridin-2-yl acetate]: the “Prasugrel Solubility” value turned out to be 0.0054% w/v in data set [2] (SBE6.5-β-CD 5% w/v), 0.0124% w/v in data set [2] (SBE6.5-β-CD 10% w/v), 0.0252% w/v in data set [2] (SBE6.5-β-CD 20% w/v) and 0.0379% w/v in data set [2] (SBE6.5-β-CD 30% w/v). For the same compound, the “prasugrel solubility as a function of the derivatized cyclodextrin concentration” value in data set [2] (SBE6.5-β-CD, FIG. 2) is on record as “increased linearly”; in data set [3] (both HP4.3-β-CD and SBE6.5-β-CD, FIG. 3) it was “increased linearly”. Moreover, the solubility turned out to be 54 µg/mL in data set [2] (SBE6.5-β-CD 5% w/v); 124 µg/mL in data set [2] (SBE6.5-β-CD 10% w/v); 252 µg/mL in data set [2] (SBE6.5-β-CD 20% w/v); 379 µg/mL in data set [2] (SBE6.5-β-CD 30% w/v); 515 µg/mL in data set [2] (SBE6.5-β-CD 40% w/v); 645 µg/mL in data set [3] (aqueous HP4.3-β-CD solution, pH 4, aqueous with cosolvent or surfactant or cyclodextrin, Prasugrel Solubility w/ HP4.3-β-CD, HP4.3-β-CD 30% w/v). Moreover, the solubility in data set [3] (aqueous SBE6.5-β-CD solution, pH 4, aqueous with cosolvent or surfactant or cyclodextrin, Prasugrel Solubility w/ SBE6.5-β-CD, SBE6.5-β-CD 30% w/v) stood at 664 µg/mL; in data set [3] (aqueous solution, pH 4, aqueous buffer, Prasugrel Solubility w/ HP4.3-β-CD, cyclodextrin derivative 0% w/v) it was 206 µg/mL; in data set [3] (aqueous solution, pH 4, aqueous buffer, Prasugrel Solubility w/ SBE6.5-β-CD, cyclodextrin derivative 0% w/v), 206 µg/mL; in data set [3] (aqueous solution, pH 4, aqueous with cosolvent or surfactant or cyclodextrin, Prasugrel Solubility w/ HP4.3-β-CD, HP4.3-β-CD 5% w/v) it was 256 µg/mL; in data set [3] (aqueous solution, pH 4, aqueous with cosolvent or surfactant or cyclodextrin, Prasugrel Solubility w/ HP4.3-β-CD, HP4.3-β-CD 10% w/v), 474 µg/mL; in data set [3] (aqueous solution, pH 4, aqueous with cosolvent or surfactant or cyclodextrin, Prasugrel Solubility w/ HP4.3-β-CD, HP4.3-β-CD 20% w/v), 524 µg/mL. For the same compound, the solubility in data set [3] (aqueous solution, pH 4, aqueous with cosolvent or surfactant or cyclodextrin, Prasugrel Solubility w/ HP4.3-β-CD, HP4.3-β-CD 40% w/v) was 875 µg/mL; in data set [3] (aqueous solution, pH 4, aqueous with cosolvent or surfactant or cyclodextrin, Prasugrel Solubility w/ SBE6.5-β-CD, SBE6.5-β-CD 5% w/v), 268 µg/mL; in data set [3] (aqueous solution, pH 4, aqueous with cosolvent or surfactant or cyclodextrin, Prasugrel Solubility w/ SBE6.5-β-CD, SBE6.5-β-CD 10% w/v), 736 µg/mL; in data set [3] (aqueous solution, pH 4, aqueous with cosolvent or surfactant or cyclodextrin, Prasugrel Solubility w/ SBE6.5-β-CD, SBE6.5-β-CD 20% w/v), 580 µg/mL; in data set [3] (aqueous solution, pH 4, aqueous with cosolvent or surfactant or cyclodextrin, Prasugrel Solubility w/ SBE6.5-β-CD, SBE6.5-β-CD 40% w/v), 927 µg/mL. In addition, the “decrease in prasugrel concentration” value was “less than 10%” in data set [4] (pH 3, 0.1 M phosphate buffer, after 30 hours); “less than 20%” in data set [4] (pH 3, 0.1 M phosphate buffer, after about 55 hours); “less than 10%” in data set [4] (pH 4, 0.1 M phosphate buffer, after 30 hours); “less than 20%” in data set [4] (pH 4, 0.1 M phosphate buffer, after about 55 hours); “about 20%” in data set [4] (pH 6, 0.1 M phosphate buffer, after 30 hours); “about 36%” in data set [4] (pH 6, 0.1 M phosphate buffer, after about 55 hours). Further, the “stability in aqueous solution containing a sulfoalkyl ether-β-cyclodextrin versus pH” value in data set [4] (pH 3, 4 and 6 compared) is listed as “more stable at pH 4 or less”; in data set [5], “more stable at pH 4 or less”. Further, the “stability in SBE6.5-β-CD versus HP4.3-β-CD” value in data set [5] (30% w/v solutions, pH 4, 0.1 M phosphate buffer, FIG. 6) is recorded as “nearly identical stability”. Also, the “time to return to baseline levels of platelet aggregation” value in the data set on platelet aggregation was 7 to 10 days. Moreover, the “platelet inhibition and response compared to clopidogrel” value in the data set with platelet was “greater platelet inhibition and more consistent response”.
